# Test results from US20250152555A1, “Pharmaceutical Composition for Preventing or Treating Triple-Negative Breast Cancer” (Daewoong Pharmaceutical Co., Ltd., priority 2021, published 2025).
# Experiments:
# [1] = system: Hs578T (human triple negative breast cancer cell line); experiment: CellTiter-Glo Luminescent Cell Viability, combined administration of docetaxel (Experimental Example 3); type: cell-based
# Method: 10 μM of Fexuprazan and 1 μM of Doxorubicin were administered singly and in combination, respectively. As a comparative group, 10 μM of Vonoprazan was administered singly or in combination with Doxorubicin. At this time, 0.1% DMSO was used as a solvent for each composition. Further, 0.1% DMSO was used as a vehicle control. Each experimental group was repeated twice. Plates treated with the compound at respective concentrations were incubated in a 5% CO2 incubator at 37° C. for 48 hours. […] The reaction was performed at room temperature in a dark room for 10 minutes, and luminescence was measured using a Flexstation3 multi-mode microplate reader. The luciferase enzyme activity, representing the amount of ATP, was measured by a chemiluminescence method according to CellTiter-Glo® Luminescent Cell Viability instructions, and the inhibitory activity was calculated. […]
# Hs578T (human triple negative breast cancer cell line) was incubated in a 96 well clear bottom plate and then stabilized for 24 hours. […] After incubating in a 5% CO2 incubator at 37° C. for 48 hours, the luciferase enzyme activity, representing the amount of ATP, was measured by a chemiluminescence method according to CellTiter-Glo® Luminescent Cell Viability instructions, and the inhibitory activity was calculated. The respective results were analyzed using Microsoft Excel, and significance was confirmed through an unpaired t test in Graphpad Prism software.
# Hs578T cell line = experiment: CellTiter-Glo Luminescent Cell Viability, optimal molar ratio for combination use with Doxorubicin (Experimental Example 2); type: cell-based, human
# Method: (§1) In order to confirm the anticancer efficacy when Fexuprazan and Doxorubicin were administered in combination, cell proliferation was measured for Hs578T (human triple-negative breast cancer cell line) by a CellTiter-Glo® Luminescent Cell Viability (Promega, Catalog #G7571) method. The above evaluation was performed by a method in which when the luciferase enzyme was activated by ATP leaked from living cells, it reacted with a luciferin substrate, and the enzyme activity at this time was measured to confirm the cell viability.
# Specifically, 100 μL of cell culture medium (RPMI medium, 10% FBS, 1% P/S, 4.5 g/L D-Glucose, 2.383 g/L HEPES Buffer, L-Glutamine, 1.5 g/L Sodium Bicarbonate, 110 mg/L Sodium pyruvate) was used and each cancer cell line was prepared in a white clear-bottom 96-well microplate. 10 μM of Fexuprazan and 1 μM of Doxorubicin were administered singly and in combination, respectively. As a comparative group, 10 μM of Vonoprazan was administered singly or in combination with Doxorubicin. At this time, 0.1% DMSO was used as a solvent for each composition. […] The reaction was performed at room temperature in a dark room for 10 minutes, and luminescence was measured using a Flexstation3 multi-mode microplate reader. The luciferase enzyme activity, representing the amount of ATP, was measured by a chemiluminescence method according to CellTiter-Glo® Luminescent Cell Viability instructions, and the inhibitory activity was calculated. The results of each compound were analyzed using Microsoft Excel. […]
# In order to confirm the optimal combination ratio of Fexuprazan to Doxorubicin, cell proliferation was measured using a CellTiter-Glo® Luminescent Cell Viability (Promega, Catalog #G7571) method in the same manner as in Experimental Example 1. […] The cells were incubated in a 5% CO2 incubator at 37° C. for 48 hours, the luciferase enzyme activity, representing the amount of ATP, was measured by a chemiluminescence method according to CellTiter-Glo® Luminescent Cell Viability instructions, and the inhibitory activity of the compound according to this purpose was calculated. […]
# [2] = system: Hs578T (human triple-negative breast cancer cell line); experiment: CellTiter-Glo Luminescent Cell Viability, combined administration of Doxorubicin (Experimental Example 1); type: cell-based; conditions: for antitumor effect in combination with Doxorubicin compared to administration alone / synergistic effect with Doxorubicin: 10 μM with 1 μM Doxorubicin, Table 1 and FIG. 1; for viability at 10 µM: single agent 10.0 μM, no Doxorubicin
# Method: as §1
# Specifically, 100 μL of cell culture medium (RPMI medium, 10% FBS, 1% P/S, 4.5 g/L D-Glucose, 2.383 g/L HEPES Buffer, L-Glutamine, 1.5 g/L Sodium Bicarbonate, 110 mg/L Sodium pyruvate) was used and each cancer cell line was prepared in a white clear-bottom 96-well microplate. 10 μM of Fexuprazan and 1 μM of Doxorubicin were administered singly and in combination, respectively. As a comparative group, 10 μM of Vonoprazan was administered singly or in combination with Doxorubicin. At this time, 0.1% DMSO was used as a solvent for each composition. Further, 0.1% DMSO was used as a vehicle control. Each experimental group was repeated twice. Plates treated with the compound at respective concentrations were incubated in a 5% CO2 incubator at 37° C. for 48 hours. 100 μL/well of the substrate aqueous solution containing luciferin was added to a white clear-bottom 96 well microplate to initiate the enzymatic reaction. The reaction was performed at room temperature in a dark room for 10 minutes, and luminescence was measured using a Flexstation3 multi-mode microplate reader. The luciferase enzyme activity, representing the amount of ATP, was measured by a chemiluminescence method according to CellTiter-Glo® Luminescent Cell Viability instructions, and the inhibitory activity was calculated. The results of each compound were analyzed using Microsoft Excel. Compound concentrations were converted into logarithmic values using GraphPad Prism software and expressed on the graph.
# [3] = Homo sapiens, Hs-578T, Doxorubicin 1.0 μM alone, 48 hours, read-out: Relative cell viability (%)
# [4] = Homo sapiens, Hs-578T, 48 hours, read-out: Relative cell viability (%)
compound,measurement,setting,value
"CC(=O)O[C@@]12CO[C@@H]1C[C@H](O)[C@@]1(C)C(=O)[C@H](O)C3=C(C)[C@@H](OC(=O)[C@H](O)[C@@H](NC(=O)OC(C)(C)C)c4ccccc4)C[C@@](O)([C@@H](OC(=O)c4ccccc4)[C@H]21)C3(C)C [Docetaxel, docetaxel]",viability at 0.001 µM,"[1]; Homo sapiens, Hs-578T, Docetaxel 1.0 nM alone, 48 hours, read-out: Relative cell viability (%)",88.3%
same,viability at 0.01 µM,"[1]; Homo sapiens, Hs-578T, Docetaxel 10.0 nM alone, 48 hours, read-out: Relative cell viability (%)",49.3%
same,synergistic effect on the antitumor effect relative to Esomeprazole,"[1]; docetaxel 1 nM and 10 nM combined with 10 μM Fexuprazan, Table 3 and FIG. 4",synergistic effect
COc1cccc2c1C(=O)c1c(O)c3c(c(O)c1C2=O)C[C@@](O)(C(=O)CO)C[C@@H]3O[C@H]1C[C@H](N)[C@H](O)[C@H](C)O1 [Doxorubicin],viability at 1 µM,Hs578T cell line; [3],50%
same,viability at 1 µM,[2]; [3],70.6%
"CNCc1cn(S(=O)(=O)c2cccc(F)c2)c(-c2ccc(F)cc2F)c1OC [Fexuprazan, 1-(5-(2,4-difluorophenyl)-1-((3-fluorophenyl)sulfonyl)-4-methoxy-1H-pyrrol-3-yl)-N-methylmethanamine]","synergistic effect with Doxorubicin, compared to the combined effect of Esomeprazole",Hs578T cell line; molar ratio of Doxorubicin and Fexuprazan 1:5 or more,synergistic effects
same,"synergistic effect with Doxorubicin, compared to the combined effect of Esomeprazole",Hs578T cell line; molar ratios of Doxorubicin and Fexuprazan 1:10 or more,especially superior
same,antitumor effect in combination with Doxorubicin compared to administration alone / synergistic effect with Doxorubicin,[2],superior antitumor effect
same,viability at 10 µM,[2]; [4],100%
CNCc1cc(-c2ccccc2F)n(S(=O)(=O)c2cccnc2)c1 [Vonoprazan],antitumor effect in combination with Doxorubicin compared to administration alone / synergistic effect with Doxorubicin,[2],no synergistic effect
same,viability at 10 µM,[2]; [4],92.3%
